Values of other authors as cited in US20240050339A1, “FORMULATION COMPRISING P-MENTHANE-3,8-DIOL” (priority 2020, published 2024).

Tests used:
[1] = system: SARS-CoV-2 England-2 isolate; settings: one minute, mixed with the virus in the liquid phase
Urbani SARS virus = settings: PMD alone, from U.S. Pat. No. 7,872,051

| SMILES | anti-viral activity in liquid suspension [1] | maximum log reduction (Urbani SARS virus) [log] |
| --- | --- | --- |
| CCO [ethanol] | have anti-viral activity |  |
| CC(C)O [isopropanol, propan-2-ol] | have anti-viral activity |  |
| CC1CCC(C(C)(C)O)C(O)C1 (stereo not drawn) [PMD, 2-(2-Hydroxypropan-2-yl)-5-methylcyclohexan-1-ol] |  | 2.5 |
